The text below walks through data of patent US7041638B2, “Surfactant prevention of vaginitis and lung complications from cancer chemotherapy” (The Penn State Research Foundation, priority 2001, dated 2006).

Holding throughout (assay type): cell-based, human
Series [1] has as its system THP-1 cells. Description: Cytokine production by differentiated THP-1 cells after SP-A, bleomycin or Ara-C (ELISA). Conditions: for TNF-α level in culture medium: mean±SEM, FIG. 3A. The protocol: (§1) The THP-1 cell line was obtained from the American Type Culture Collection. Cells were grown in RPMI 1640 medium (Sigma) with 0.05 mM 2-mercaptoethanol containing 10% fetal calf serum (FCS; Summit Biotechnology) at 37° C. in an atmosphere of 5% CO2. The cells were split periodically and used at passages 8–15 in the various experiments. After differentiation with 10^−8 M Vitamin D3 for 72 h, cells were pelleted and washed with cold PBS. The cell pellet was then resuspended in complete RPMI 1640 medium with 10% FCS at a density of 2×10^6 cells/ml in 24-well culture plates, and exposed to bleomycin and SP-A. Cell viability was determined by trypan blue exclusion. […] Incubations were terminated by pelleting the cells. Supernatants and/or cell pellet were stored at −80° C. until assayed.
(§2) After differentiation with 10^−8 M of vitamin D3 for 72 h, THP-1 cells were pelleted and washed as described above. Cells at a density of 2×10^6 cells/ml were incubated at 24 well culture plates. For dose-response study, cells were stimulated with bleomycin at concentrations ranging from 0–100 mU/ml. Time-dependent secretion of cytokines following bleomycin treatment was studied from 0–24 h with 5 and 50 mU/ml of bleomycin. In experiments where the combined effects of SP-A and bleomycin were examined, SP-A (10 μg/ml) and bleomycin (5 or 50 mU/ml) were added to cells simultaneously, unless otherwise noted. After treatment, the culture medium was collected at 4 h or 6 h for the ELISA assay of cytokine production and cells were harvested at 2 h or 4 h for cytokine mRNA analysis.
Cytosine arabinoside (Ara-C, Cytosar-U, Pharmacia & Upjohn) was included in some experiments to confirm the specificity of the effect of bleomycin on proinflammatory cytokine production by THP-1 cells. Ara-C is another antineoplastic agent with known cytotoxicity. […] Ara-C, at concentrations ranging from 0.1 to 5 mM in culture medium, was used for evaluating the effect of Ara-C on TNF-α. The conditions employed in the Ara-C experiments were the same as those in bleomycin studies except that only a 4 h time point was done.
The ELISA assays for TNF-α, IL-8, and IL-1β (OptEIA Human ELISA Sets, Pharmingen) were performed according to the instructions recommended by the manufacturer. The ELISA kits were capable of measuring levels of 7.8–500 pg/ml for TNF-α, 6.2–400 pg/ml for IL-8 and 20–1000 pg/ml for IL-1β. A reference curve for each of these cytokines was obtained by plotting the concentration of several dilutions of standard protein versus the corresponding absorbance.
For orientation: ELISA stands for enzyme-linked immunosorbent assay.

Series [2] concerns THP-1 cells. In words: Cell viability by trypan blue exclusion. The protocol: as §1
Series [3] has as its system THP-1 cells. Description: Cytokine mRNA in THP-1 cells by ribonuclease protection assay (RPA). Conditions: for relative intensity of TNF-α mRNA / IL-8 mRNA level: SP-A 10 μg/ml and/or bleomycin 5 mU/ml, normalized to L32; for relative intensity of TNF-α mRNA: FIG. 4A; for IL-8 mRNA level: 4 h, FIG. 4B. As to the method: as §2
Total RNA was isolated from THP-1 cells at 2 h or 4 h after treatment by using Rneasy Mini Kits (QIAGEN) according to the protocol of the RNeasy Mini Handbook. Cytokine mRNA quantification was performed by ribonuclease protection assay (RPA). RiboQuant™ Ribonuclease RPA Starter Package and a Customized Human Template Set (Pharmingen) were used to analyze TNF-α, IL-1β, and IL-8 mRNA in one assay. The customized template set contains DNA templates that can be used for T7 RNA polymerase-directed synthesis of α-^32P-UTP-labeled, anti-sense RNA probes. These can be hybridized to TNF-α, IL-1β, and IL-8 mRNA. Templates for the L32 and GAPDH housekeeping genes were also included to allow for normalization of sampling or technical error. Aliquots of 2 μg of total RNA were hybridized with radiolabeled probes at 56° C. for 16 h. RNase treatment followed, resulting in degradation of single-stranded RNA and free probes. After inactivation and precipitation, protected probes were resolved by a 5% polyacrylamide-urea sequence gel electrophoresis and visualized by autoradiography. Densities of the protected bands were quantified by soft laser densitometry. The mRNA level is expressed as the ratio of the densitometric value of each cytokine mRNA to that of the L32 or GAPDH mRNA.

[4] abbreviates: SP-A 10 μg/ml and/or bleomycin 5 mU/ml, 4 h.

Where two headings read alike, the source gives them in different places.

Regarding `Nc1ccn([C@@H]2O[C@H](CO)[C@@H](O)[C@@H]2O)c(=O)n1` [Ara-C, Cytosine arabinoside], in the series on THP-1 cells [1] (Ara-C 0.1 to 5 mM, 4 h, FIG. 1D), the “TNF-α level after Ara-C treatment versus control” value is listed as “did not differ from that of control”.

As to “SP-A: native human surfactant protein A purified from bronchoalveolar lavage of alveolar proteinosis patients”, the “effect on the viability of THP-1 cells” value in the series on THP-1 cells [2] is “neither bleomycin nor SP-A appeared to have any effect”. The “relative intensity of TNF-α mRNA” value with THP-1 cells [3] (2 h) worked out at 0.51±0.27. For the same compound, in the series on THP-1 cells [3], the “IL-8 mRNA level” value was found to be 1.26±0.14. Moreover, the “TNF-α level in culture medium” value in the series on THP-1 cells [1] (setting [4]) turned out to be 86.6 ± 11.5 pg/mL.

Consider bleomycin, for which the “effect on the viability of THP-1 cells” value in the series with THP-1 cells [2] (conditions employed in this study) is on record as “neither bleomycin nor SP-A appeared to have any effect”. In the series on THP-1 cells [3] (2 h), the “relative intensity of TNF-α mRNA” value is listed as 0.74±0.20. Moreover, in the series on THP-1 cells [3] (2 h, SP-A 10 μg/ml, bleomycin 5 mU/ml, LPS 0.1 ng/ml), the “relative intensity of IL-1β mRNA” value is given as “Very low levels”. The “IL-8 mRNA level” value in the series with THP-1 cells [3] is given as 1.02±0.16. Also, the “lowest bleomycin concentration that increased TNF-α level” value in the series with THP-1 cells [1] (4 h, dose range 0–100 mU/ml, FIG. 1A) was 0.5 mU/ml. In addition, in the series on THP-1 cells [1] (4 h, dose range 0–100 mU/ml, FIG. 1B), the “lowest bleomycin concentration that increased IL-8 level” value amounted to 0.5 mU/ml. The “bleomycin concentration needed to increase IL-1β level significantly” value in the series with THP-1 cells [1] (6 h, dose range 0–100 mU/ml, FIG. 1C) stood at 50 mU/ml. Further, the “TNF-α level in culture medium” value with THP-1 cells [1] (setting [4]) worked out at 45.9 ± 10.6 pg/mL; in the series on THP-1 cells [1] (bleomycin 50 mU/ml with or without SP-A 10 μg/ml, 4 h), 82.1 ± 17.3 pg/mL. For the same compound, the “time to maximum TNF-α level” value with THP-1 cells [1] (bleomycin 5, 50 mU/ml, depending on dose, FIG. 2A) was 4 to 6 h. Besides, the “time at which increase of TNF-α levels was detected” value in the series on THP-1 cells [1] (bleomycin 5, 50 mU/ml, 0–24 h, FIG. 2A) came out at 3 h. In the series with THP-1 cells [1] (bleomycin 5, 50 mU/ml, FIG. 2A), the “time at which TNF-α returned to background levels” value came out at 24 h. Moreover, the “time to maximal IL-8 level” value in the series with THP-1 cells [1] (bleomycin 5, 50 mU/ml, FIG. 2B) is reported as “around 5 h”. Also, the “time to peak IL-1β level” value in the series on THP-1 cells [1] (bleomycin 5, 50 mU/ml, FIG. 2C) stood at 10 h.
